Laboratory results reported in patent EP0286491B1, “Antimalarial aminoquinoline derivatives, method for their preparation and pharmaceutical composition containing them” (LA REGION WALLONNE, priority 1987, dated 1988).
“Also recorded” adds a separate entry of the source.

How the values were obtained:
[1] = Acute toxicity after a single i.v. injection in non-infected mice; type: in vivo; details: for toxicité aiguë compared with Pq: qualitative comparison with primaquine; for LD50 / MTD: mouse, in vivo, iv; for LD50: mice, read-out: dose léthale 50 % (LD₅₀); for MTD: highest dose with weight loss <= 5 % over five days, read-out: dose maximale tolérée (MTD)
Excerpt: La toxicité aiguë en fonction de la dose unique administrée est déterminée sur des souris de 18 à 22 g. Une série de dilutions de chaque composé est injectée par voie intraveineuse à des groupes de 10 souris.
^a : les dérivés sont administrés par vote i.v. trois heures après l'inoculation des sporozoïtes. Les concentrations sont toujours exprimées en mg Pq diphosphate/kg. ^b : la dose maximale tolérée est définie code la dose la plus élevée induisant une perte de poids inférieure ou égale & 5 % du poids initial pendant une période de cinq jours suivant l'injection i.v. ^c : dose léthale tuant 50 % des souris en une seule injection i.v. ^d : dose prophylactique causale permettant de guérir 50 % des souris injectées. ^e : index thérapeutique défini par le rapport LD₅₀/CPD₅₀.

[2] = test system: P. berghei berghei (ANKA); assay: Causal prophylactic activity in the rodent malaria model (sporozoite-infected mice, single i.v. treatment 3 h after inoculation); type: in vivo, souris Swiss OF1; details: for index Pq (CPD₅₀ de la Pq/CPD₅₀ du composé): ratio of CPD₅₀ of Pq to CPD₅₀ of the derivative; for CPD₅₀ (dose prophylactique causale guérissant 50 % des animaux infectés) / ED50: dose as mg Pq diphosphate/kg; for activité thérapeutique compared with Pq: qualitative comparison with primaquine; for ED50: read-out: CPD₅₀ (dose prophylactique causale guérissant 50 % des animaux infectés); for index thérapeutique (LD₅₀/CPD₅₀): ratio LD₅₀/CPD₅₀
Excerpt: Le modèle de la malaria du rongeur, Plasmodium berghei-Anopheles stephensi-souris, mis au point par MOST, H., HERMAN, R. & SCHOENFELD, C. (1967) Am. J. Trop. Med. Hyg. 16, 572-575, permet de déterminer l'activité prophylactique causale (schizonticide tissulaire) de nouveaux composés thérapeutiques. La procédure utilisée est dérivée de celle de MOST, H. & MONTUORI, W.A. (1975) Am. J. Trop. Med. Hyg. 24, 179-182. Il s'agit du système P. berghei berghei (ANKA)- Anopheles stephensi-souris Swiss OF1. La souche ANKA de P. b. berghei est entretenue cycliquement sur Anopheles stephensi. La souche de souris Swiss OF1 est particulièrement sensible à P. b. berghei qui produit une infection toujours mortelle.
Les moustiques femelles (80 à 100 individus par préparation) sont débarassés de leurs pattes, ailes et abdomen, puis homogénéisés à 4°C à l'aide d'un potter en verre, dans du milieu M 199 (GIBCO) contenant 10 % de sérum foetal de veau. La suspension de sporozoïtes est ensuite purifiée des débris du moustique par deux centrifugations successives ( 2 min. à 50 g et 5 min. à 200 g) et le surnageant recueilli est conservé à 4°C. Après comptage dans une chambre de Petroff-Hausser, le nombre de parasites est ajusté par dilution avec le même milieu froid, à la densité de 2 x 10⁵ sporozoïtes/ml. L'ensemble de la procédure est toujours effectuée dans un maximum de 35 minutes et permet de préserver la viabilité et l'infectivité des sporozoïtes.
Un volume de 0,5 ml de la suspension contenant 10⁵ sporozoïtes est injectée i.v. aux souris Swiss OF1 femelles de 18 à 22 g utilisées pour les tests thérapeutiques.
Des groupes de 20 à 25 souris infectées comme décrit ci-dessus sont traités en une seule injection intraveineuse de primaquine diphosphate (Pq) ou des dérivés monoacyls et aminoacides de la primaquine sous formes dichlorhydrates (X-Pq) trois heures après l'inoculation des sporozoïtes. Le volume injecté est ajusté en fonction du poids de la souris, à raison de 0,5 ml pour un poids de 25 g. Les composés sont dilués dans du tampon phosphate salin (PBS) pH 7.0 et le pH est ajusté à 7.0. Les souris infectées mais non traitées (5 par groupe) reçoivent le tampon seul et servent à contrôler l'infectivité des sporozoïtes.
Les souris expérimentales sont gardées durant une période de 50 jours. Le développement de la parasitémie est suivi en examinant quotidiennement des frottis de sang, colorés 60 min. au Giemsa à 5 % dans du tampon Sörensen à pH 7,2, à partir du 5ème jour et ce jusqu'au 15ème jour. Le nombre d'animaux infectés peut ainsi être déterminé. Ces résultats permettent d'établir la survie à long terme (LTS, le nombre de souris survivantes non parasitées sur le nombre de souris infectées et traitées).
L'activité prophylactique causale (CPD₅₀) est obtenue par l'analyse des logits de la réponse (exprimée en % de LTS) en fonction de la dose (mg Pq/kg).
Les animaux infectés à l'aide de sporozoïtes de P. berghei sont traités trois heures après avec une seule injection des composés par voie intraveineuse. Ce test permet de définir l'activité prophylactique causale des composés ou la dose permettant de guérir 50 % des animaux infectés (CPD₅₀). La dose est toujours exprimée en mg de Pq diphosphate par kg.

[3] = single i.v. injection 3 h after sporozoite inoculation
[4] = Plasmodium berghei, iv, single i.v. injection 3 h after sporozoite inoculation

| Compound | toxicité aiguë compared with Pq [1] | index Pq (CPD₅₀ de la Pq/CPD₅₀ du composé) [2] | dose minimale effective [2, 3] | dose totalement curative (100 %) [2, 3] | CPD₅₀ (dose prophylactique causale guérissant 50 % des animaux infectés) [2, 3] | activité thérapeutique compared with Pq [2] | other results |
| --- | --- | --- | --- | --- | --- | --- | --- |
| COc1cc(NC(C)CCCNC(=O)[C@H](CC(C)C)NC(=O)[C@H](C)N)c2ncccc2c1 (stereo partly drawn) [L-leucyl-L-alanyl-Pq, N-1-L-Alanyl-L-Leucyl, N-4-(Méthoxy-6-quinolinyl-8) pentanediamine-1,4] | meilleure réduction de toxicité |  |  |  |  |  |  |
| COc1cc(NC(C)CCCNC(=O)[C@@H](N)Cc2ccccc2)c2ncccc2c1 (stereo partly drawn) [L-phenylalanyl-Pq, N-1-L-phénylalanyl , N-4(methoxy-6-quinolinyl-8) pentanediamine-1,4] | voisine de celle de la Pq | 3,1 | 1,8 mg Pq/kg | 21,3 mg Pq/kg | 6,1 mg Pq/kg |  |  |
| COc1cc(NC(C)CCCNC(=O)[C@H](C)N)c2ncccc2c1 (stereo partly drawn) [L-alanyl-Pq, N-1-L-alanyl, N-4-(méthoxy-6-quinolinyl-8) pentanediamine-1,4] | meilleure réduction de toxicité; also recorded: moins toxique que la primaquine | 3,0 | 4 mg Pq/kg | 9,9 mg Pq/kg | 6,3 mg Pq/kg | presque quatre fois supérieure à celle de la primaquine base |  |
| COc1cc(NC(C)CCCNC(=O)[C@@H](N)CCCCN)c2ncccc2c1 (stereo partly drawn) [L-lysyl-Pq] |  | 4,8 | 1,7 mg Pq/kg | 8,2 mg Pq/kg | 3,9 mg Pq/kg |  | plus toxique que la primaquine ([1]; acute toxicity, fold versus primaquine): 3 x; dose minimale toxique ([1]; single i.v. injection): 8,2 mg Pq/kg |
| COc1cc(NC(C)CCCNC(=O)[C@@H](N)CCC(=O)O)c2ncccc2c1 (stereo partly drawn) [L-glutamyl-Pq, N-1-L-glutamyl, N-4-(méthoxy-6-quinolinyl-8) pentadiamine-1,4] | le moins toxique; also recorded: meilleure réduction de toxicité | 2,2 |  |  |  |  | ED50 [2, 4]: 8.5 mg/kg; index thérapeutique (LD₅₀/CPD₅₀) [2]: 16,1; LD₅₀ relative to the LD₅₀ of Pq ([1]; fold higher than Pq): 4 x; MTD relative to the MTD of Pq ([1]; fold higher than Pq): 5 x; LD50 ([1]; single i.v. injection): 136 mg/kg; MTD ([1]; single i.v. injection): 124 mg/kg |
| COc1cc(NC(C)CCCNC(=O)C(Cc2ccccc2)NC(=O)CCC(=O)O)c2ncccc2c1 [succinyl-L-phenylalanyl-Pq] |  |  |  |  |  | nettement moins actifs que la Pq |  |
| COc1cc(NC(C)CCCN)c2ncccc2c1 (stereo not shown) [Pq, 6-méthoxy-8-(4-amino-1-méthylbutylamino)-quinoléine, reference compound] |  |  |  |  |  |  | ED50 [2, 4]: 18.7 mg/kg; minimal effective dose ([2]; Plasmodium berghei, iv, single i.v. injection 3 h after sporozoite inoculation, read-out: dose minimale effective): 10.4 mg/kg; activité thérapeutique ([2]; at 25 mg/kg i.v.): 75%; index thérapeutique (LD₅₀/CPD₅₀) [2]: 1,7; toxicité dès ([1]; dose from which toxicity is seen, i.v.): ≥ 25 mg/kg; LD50 ([1]; single i.v. injection): 31 mg/kg; MTD ([1]; single i.v. injection): 25.7 mg/kg |
| COc1cc(NC(C)CCCNC(=O)[C@@H](N)CC(C)C)c2ncccc2c1 (stereo partly drawn) [L-leucyl-Pq, N-1-L-leucyl, N-4-(méthoxy-6-quinolinyl-8)pentanediamine-1,4] |  | 1,2 | 7,6 mg Pq/kg | 30 mg Pq/kg |  |  | CPD₅₀ ([2]; single i.v. injection 3 h after sporozoite inoculation, unit printed without mg): 16,2 Pq/kg |
| COc1cc(NC(C)CCCNC(=O)CCCC(=O)O)c2ncccc2c1 (stereo not shown) [glutarryl-Pq] |  |  |  |  |  | nettement moins actifs que la Pq |  |
| COc1cc(NC(C)CCCNC(=O)[C@@H](C)N)c2ncccc2c1 (stereo partly drawn) [D-alanine, N-1-D-alanyl, N-4-(méthoxy-6-quinolinyl-8)pentanediamine-1,4] | très faible toxicité |  |  |  |  |  |  |
| L-glutamine |  | 1,9 |  |  | 10 mg Pq/kg |  |  |
| COc1cc(NC(C)CCCNC(=O)C(C)NC(=O)CCC(=O)O)c2ncccc2c1 [succinyl-L-alanyl-Pq] |  |  |  |  |  | nettement moins actifs que la Pq |  |
